Experimental data taken from publication PMC3682184 (Experimental Parasitology, 2013).

T1: NADP-dependent secondary alcohol dehydrogenase (ADH-1) (Trichomonas vaginalis, UniProt A2DJ40)
T1 sequence (A2DJ40 1-365): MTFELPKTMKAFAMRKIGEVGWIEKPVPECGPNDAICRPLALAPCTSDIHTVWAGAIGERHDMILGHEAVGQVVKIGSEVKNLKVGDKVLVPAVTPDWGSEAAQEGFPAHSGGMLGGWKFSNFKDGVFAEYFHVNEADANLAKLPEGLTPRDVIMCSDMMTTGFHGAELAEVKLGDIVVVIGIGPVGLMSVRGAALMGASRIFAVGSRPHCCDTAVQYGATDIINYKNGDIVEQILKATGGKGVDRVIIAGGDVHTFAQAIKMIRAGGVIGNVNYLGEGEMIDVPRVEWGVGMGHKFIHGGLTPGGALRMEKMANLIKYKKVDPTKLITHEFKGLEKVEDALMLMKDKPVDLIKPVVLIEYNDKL

T2: NADP-dependent secondary alcohol dehydrogenase (E. histolytica homologue of ADH-1) (Entamoeba histolytica, UniProt P35630)
T2 sequence (P35630 1-366): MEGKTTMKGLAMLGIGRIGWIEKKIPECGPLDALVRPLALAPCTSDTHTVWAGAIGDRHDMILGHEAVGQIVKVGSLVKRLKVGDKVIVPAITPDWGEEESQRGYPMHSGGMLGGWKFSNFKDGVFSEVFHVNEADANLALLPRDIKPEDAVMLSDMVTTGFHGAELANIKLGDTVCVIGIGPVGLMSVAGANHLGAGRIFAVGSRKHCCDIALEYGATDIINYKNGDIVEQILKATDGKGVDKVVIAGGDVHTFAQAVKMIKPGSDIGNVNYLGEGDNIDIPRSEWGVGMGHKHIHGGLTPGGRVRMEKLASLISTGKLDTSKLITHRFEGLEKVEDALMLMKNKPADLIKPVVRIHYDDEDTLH

B1: NADP-dependent secondary alcohol dehydrogenase (ADH-1) (Trichomonas vaginalis G3) (protein)
chain: T1 sequence (A2DJ40 1-365)

Legend:
[1] = target: T1, NADP-dependent secondary alcohol dehydrogenase (ADH-1); assay: NADPH oxidation at […] nm, acetaldehyde reduction; format: biochemical
[2] = target: T2, NADP-dependent secondary alcohol dehydrogenase (E. histolytica homologue of ADH-1); assay: NADPH oxidation at […] nm in cell extract, acetaldehyde reduction; format: biochemical
purified protein [3] = substrate: NC(=O)c1ccc[n+]([C@@H]2O[C@H](COP(=O)(O)OP(=O)(O)OC[C@H]3O[C@@H](n4cnc5c(N)ncnc54)[C@H](OP(=O)(O)O)[C@@H]3O)[C@@H](O)[C@H]2O)c1; assay: purified protein; details: 100 mM 2-propanol, pH 6.75, 37 °C, varied: cofactor
purified protein [4] = substrate: CC(C)O; assay: purified protein; details: 1 mM NADP+, pH 6.75, 37 °C

Molecule | IC50 [1] [mM] | inhibition at 200000 µM ([2]; read-out: Inhibition 2-propanol ^b aldehyde reduction) [%] | inhibition at 100 µM ([2]; read-out: Inhibition CoA ^c aldehyde reduction) [%] | Km (purified protein [3]) [mM] | Km (purified protein [4]) [mM]
CC(C)O [2-propanol] | 96 ± 11 | 80 ± 11 |  |  | 
CC(C)(COP(=O)(O)OP(=O)(O)OC[C@H]1O[C@@H](n2cnc3c(N)ncnc32)[C@H](O)[C@@H]1OP(=O)(O)O)[C@@H](O)C(=O)NCCC(=O)NCCS [coenzyme A] | 0.063 ± 0.017 |  | 62 ± 22 |  | 
B1 |  |  |  | 0.0412 ± 0.0044 | 11.57 ± 1.25
